Laboratory results as given in BigSolDB 2.1.

OC(CN1CCN(CC(O)(Cn2cncn2)c2ccc(F)cc2F)CC1)(Cn1cncn1)c1ccc(F)cc1F (stereo not given)
solubility (mole fraction)
Details	293.15 K	298.15 K	303.15 K	308.15 K	313.15 K
in ethanol	0.000305	0.00036	0.000401	0.000463	0.000548
in n-hexane	9.77e-07	1.17e-06	1.37e-06	1.62e-06	1.92e-06
in n-octanol	6.23e-05	7.87e-05	0.000101	0.000126	0.00016
